Measurements reported in patent publication US20220073536A1 (Rigel Pharmaceuticals, Inc., priority 2003, published 2022).

What was measured:
[1] = test system: cultured human mast cells (CHMC); experiment: CHMC low cell density ionomycin activation: tryptase assay; format: cell-based; conditions: low cell density CHMC, tryptase, 3 pt, read-out: LD Tryptase, CHMC, Iono, 3 pt
[2] = test system: cultured human mast cells (CHMC); experiment: CHMC low cell density IgE activation: tryptase assay; format: cell-based; conditions: low cell density CHMC, IgE activation, tryptase
Procedure, shortened: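 Anti-IgE-driven degranulation of cultured human mast cells at low density, 1000–1500 cells/well, was induced over 30 min at 37 °C. It was scored by supernatant tryptase activity on a fluorogenic substrate.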

[3] = Homo sapiens, Mast cell, 3 pt, read-out: LD Tryptase, CHMC, IgE, 3 pt
[4] = 3 pt, read-out: LD Tryptase, CHMC, IgE, 3 pt
[5] = Homo sapiens, Mast cell, 8 pt, read-out: LD Tryptase, CHMC, IgE, 8 pt
[6] = 8 pt, read-out: LD Tryptase, CHMC, IgE, 8 pt

SMILES | IC50 ([1]; Homo sapiens, Mast cell) | IC50 [2, 3] | IC50 [1] | IC50 [2, 4] | IC50 [2, 5] | IC50 [2, 6]
COc1cc(C(N)=O)c(Nc2ncc(F)c(NC3CCCC3)n2)cc1OCc1ccccc1 [Compound 1171, N2-(2-Aminocarbonyl-5-benzoxy-4-methoxyphenyl)-N4-cyclopentyl-5-fluoro-2,4-pyrimidinediamine] | > 10 µM | < 10 µM | – | – | – | –
CC(=O)N(C)c1ccc(Nc2ncc(F)c(NC3CCCC3)n2)cc1 [Compound 1172, N2-[4-(N-Acetyl-N-methylamino)phenyl]-N4-cyclopentyl-5-fluoro-2,4-pyrimidinediamine] | > 10 µM | < 10 µM | – | – | – | –
Fc1cnc(Nc2cccc(NC3=NCCN3)c2)nc1NC1CCCC1 [Compound 1173, N4-Cyclopentyl-5-fluoro-N2-[3-(N-2-imidazolin-2-yl)aminophenyl]-2,4-pyrimidinediamine] | > 10 µM | > 10 µM | – | – | – | –
COc1cc(C(N)=O)c(Nc2ncc(F)c(NC3CCCCC3)n2)cc1OCc1ccccc1 [Compound 1175, N2-(2-Aminocarbonyl-5-benzoxy-4-methoxyphenyl)-N4-cyclohexyl-5-fluoro-2,4-pyrimidinediamine] | > 10 µM | < 10 µM | – | – | – | –
CC(=O)N(C)c1ccc(Nc2ncc(F)c(NC3CCCCC3)n2)cc1 [Compound 1176, N2-[4-(N-Acetyl-N-methylamino)phenyl]-N4-cyclohexyl-5-fluoro-2,4-pyrimidinediamine] | > 10 µM | < 10 µM | – | – | – | –
Fc1cnc(Nc2cccc(NC3=NCCN3)c2)nc1NC1CCCCC1 [Compound 1177] | > 10 µM | > 10 µM | – | – | – | –
Fc1cnc(Nc2cccc(-c3ncco3)c2)nc1Nc1cccc(-c2ncco2)c1 [Compound 1178, N2,N4-Bis[3-(oxazol-2-yl)phenyl]-5-fluoro-2,4-pyrimidinediamine] | > 10 µM | > 10 µM | – | – | – | –
CN(c1nc(Nc2cccc(-c3ncco3)c2)ncc1F)C1CCC1 [Compound 1179, N4-Cyclobutyl-5-fluoro-N4-methyl-N2-[3-(oxazol-2-yl)phenyl]-2,4-pyrimidinediamine] | > 10 µM | < 10 µM | – | – | – | –
Fc1cnc(Nc2ccc(N3CCOCC3)cc2)nc1N[C@H]1CCN(Cc2ccccc2)C1 [Compound 1180, (S)-N4-(1 -Benzylpyrrolidin-3-yl)-5-fluoro-N2-(4-morpholinophenyl)-2,4-pyrimidinediamine] | > 10 µM | < 10 µM | – | – | – | –
CC(=O)N1CCN(c2ccc(Nc3ncc(F)c(N[C@H]4CCN(Cc5ccccc5)C4)n3)cc2)CC1 [Compound 1181, (S)-N2-[4-(4-Acetylpiperazino)phenyl]-N4-(1-benzylpyrrolidin-3-yl)-5-fluoro-2,4-pyrimidinediamine] | > 10 µM | < 10 µM | – | – | – | –
CN1CCN(c2ccc(Nc3ncc(F)c(N[C@H]4CCN(Cc5ccccc5)C4)n3)cc2)CC1 [Compound 1182] | > 10 µM | > 10 µM | – | – | – | –
CCOC(=O)N1CCN(c2ccc(Nc3ncc(F)c(N[C@H]4CCN(Cc5ccccc5)C4)n3)cc2)CC1 [Compound 1183, (S)-N4-(1-Benzylpyrrolidin-3-yl)-N2-[4-(4-ethoxycarbonylpiperazino)phenyl]-5-fluoro-2,4-pyrimidinediamine] | > 10 µM | < 10 µM | – | – | – | –
Fc1cnc(Nc2cccc(N3CCOCC3)c2)nc1N[C@H]1CCN(Cc2ccccc2)C1 [Compound 1184] | > 10 µM | < 10 µM | – | – | – | –
CC(=O)N1CCN(c2cccc(Nc3ncc(F)c(N[C@H]4CCN(Cc5ccccc5)C4)n3)c2)CC1 [Compound 1185, (S)-N2-[3-(4-Acetylpiperazino)phenyl]-N4-(benzylpyrrolidin-3-yl)-5-fluoro-2,4-pyrimidinediamine] | – | – | > 10 µM | < 10 µM | – | –
CN1CCN(c2cccc(Nc3ncc(F)c(N[C@H]4CCN(Cc5ccccc5)C4)n3)c2)CC1 [Compound 1186] | > 10 µM | < 10 µM | – | – | – | –
CCOC(=O)N1CCN(c2cccc(Nc3ncc(F)c(N[C@H]4CCN(Cc5ccccc5)C4)n3)c2)CC1 [Compound 1187, (S)-N4-(1-Benzylpyrrolidin-3-yl)-N2-[3-(4-ethoxycarbonylpiperazino)phenyl]-5-fluoro-2,4-pyrimidinediamine] | > 10 µM | < 10 µM | – | – | – | –
CC1(C)Oc2ccc(Nc3nc(Nc4cccc(-c5ncco5)c4)ncc3F)cc2NC1=O [Compound 1281] | > 10 µM | < 10 µM | – | – | < 10 µM | –

SMILES | IC50 ([1]; Homo sapiens, Mast cell) | IC50 [2, 3] | IC50 [1] | IC50 [2, 4] | IC50 [2, 5] | IC50 [2, 6]
C[C@@H]1Oc2ccc(Nc3nc(Nc4cccc(-c5ncco5)c4)ncc3F)cc2NC1=O [Compound 1282] | > 10 µM | < 10 µM | – | – | < 10 µM | –
C[C@H]1Oc2ccc(Nc3nc(Nc4cccc(-c5ncco5)c4)ncc3F)cc2NC1=O [Compound 1283] | > 10 µM | < 10 µM | – | – | < 10 µM | –
O=C1Nc2cc(Nc3nc(Nc4cccc(-c5ncco5)c4)ncc3F)ccc2OC1(F)F [Compound 1284] | > 10 µM | < 10 µM | – | – | < 10 µM | –
NC1CCOc2ccc(Nc3nc(Nc4cccc(-c5ncco5)c4)ncc3F)cc21 (stereo not drawn) [Compound 1285] | > 10 µM | < 10 µM | – | – | < 10 µM | –
CC(C)(C)OC(=O)NC1CCOc2ccc(Nc3nc(Nc4cccc(-c5cnco5)c4)ncc3F)cc21 (stereo not drawn) [Compound 1287, N4-(4-N-tert-Butoxycarbonylamino-3,4-dihydro-2H-1-benzopyran-6-yl)-5-fluoro-N2-[3-(oxazol-5-yl)phenyl]-2,4-pyrimidinediamine] | – | – | > 10 µM | < 10 µM | – | –
CC(C)(C)OC(=O)NC1CCOc2ccc(Nc3nc(Nc4ccc(-c5cnco5)cc4)ncc3F)cc21 (stereo not drawn) [Compound 1288, N4-(4-N-tert-Butoxycarbonylamino-3,4-dihydro-2H-1-benzopyran-6-yl)-5-fluoro-N2-[4-(oxazol-5-yl)phenyl]-2,4-pyrimidinediamine] | – | – | < 10 µM | < 10 µM | – | < 10 µM
CC(C)(C)OC(=O)NC1CCOc2ccc(Nc3nc(Nc4ccc(-c5ncco5)cc4)ncc3F)cc21 (stereo not drawn) [Compound 1289, N4-(4-N-tert-Butoxycarbonylamino-3,4-dihydro-2H-1-benzopyran-6-yl)-5-fluoro-N2-[4-(oxazol-2-yl)phenyl]-2,4-pyrimidinediamine] | – | – | < 10 µM | < 10 µM | – | –
OC1CCOc2ccc(Nc3nc(Nc4ccc(-c5ncco5)cc4)ncc3F)cc21 (stereo not drawn) [Compound 1291, 5-Fluoro-N4-(4-hydroxy-3,4-dihydro-2H-1-benzopyran-6-yl)-N2-[4-(oxazol-2-yl)phenyl]-2,4-pyrimidinediamine] | > 10 µM | < 10 µM | – | – | < 10 µM | –
CNC(=O)CNC(=O)c1ccc(Nc2ncc(F)c(Nc3ccc4c(c3)NC(=O)C(C)(C)O4)n2)cc1 [Compound 1295, N4-(2,2-Dimethyl-3-oxo-4H-benz[1,4]oxazin-6-yl)-5-fluoro-N2-[4-[N-(N-methylamino)carbonylmethylene]aminocarbonylphenyl]-2,4-pyrimidinediamine] | – | – | > 10 µM | < 10 µM | – | < 10 µM
CNC(=O)CNC(=O)c1ccc(Nc2ncc(F)c(Nc3ccc4c(c3)NC(=O)[C@H](C)O4)n2)cc1 [Compound 1296, (S)-5-Fluoro-N2-[4-[N-(N-methylamino)carbonylmethylene]aminocarbonylphenyl]-N4-(2-methyl-3-oxo-2H,4H-benz[1,4]oxazin-6-yl)-2,4-pyrimidinediamine] | – | – | > 10 µM | < 10 µM | – | < 10 µM
CNC(=O)CNC(=O)c1ccc(Nc2ncc(F)c(Nc3ccc(Cl)c(Cl)c3)n2)cc1 [Compound 1300, N4-(3,4-Dichlorophenyl)-5-fluoro-N2-[4-[N-(N-methylamino)carbonylmethylene]aminocarbonylphenyl]-2,4-pyrimidinediamine] | – | – | > 10 µM | < 10 µM | – | < 10 µM
CNC(=O)CNC(=O)c1ccc(Nc2ncc(F)c(N(C)c3ccc(Cl)c(Cl)c3)n2)cc1 [Compound 1301, N4-(3,4-Dichlorophenyl)-5-fluoro-N4-methyl-N2-[4-[N-(N-methylamino)carbonylmethylene]aminocarbonylphenyl]-2,4-pyrimidinediamine] | – | – | > 10 µM | < 10 µM | – | < 10 µM
COC(=O)CCNC(=O)c1ccc(Nc2ncc(F)c(Nc3ccc4c(c3)NC(=O)C(C)(C)O4)n2)cc1 [Compound 1302, N4-(2,2-Dimethyl-3-oxo-4H-benz[1,4]oxazin-6-yl)-5-fluoro-N2-[4-[N-(2-methoxycarbonylethyl)aminocarbonyl]phenyl]-2,4-pyrimidinediamine] | < 10 µM | < 10 µM | – | – | < 10 µM | –
COC(=O)CCNC(=O)c1ccc(Nc2ncc(F)c(Nc3ccc4c(c3)NC(=O)[C@H](C)O4)n2)cc1 [Compound 1303, (S)-5-Fluoro-N2-[4-[N-(2-methoxycarbonylethyl)aminocarbonyl]phenyl]-N4-(2-methyl-3-oxo-2H,4H-benz[1,4]oxazin-6-yl)-2,4-pyrimidinediamine] | > 10 µM | < 10 µM | – | – | < 10 µM | –
COC(=O)CCNC(=O)c1ccc(Nc2ncc(F)c(Nc3ccc4c(c3)NC(=O)C(F)(F)O4)n2)cc1 [Compound 1304] | > 10 µM | < 10 µM | – | – | < 10 µM | –
COC(=O)CCNC(=O)c1ccc(Nc2ncc(F)c(Nc3ccc(Cl)c(Cl)c3)n2)cc1 [Compound 1305] | < 10 µM | < 10 µM | – | – | < 10 µM | –
COC(=O)CCNC(=O)c1ccc(Nc2ncc(F)c(N(C)c3ccc(Cl)c(Cl)c3)n2)cc1 [Compound 1306] | > 10 µM | < 10 µM | – | – | < 10 µM | –
